Like-named read-outs stand apart in the source and are kept apart here.
Tested on: HCV 1b_Huh-Luc/Neo-ET cell line persistently expressing a bicistronic genotype 1b replicon in Huh 7 cells
Experiment: HCV replicon assay (luciferase readout, 72 h)
Type: cell-based, HCV genotype 1b
Conditions: Hepatitis C virus
How it was run: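 EC50 values come from a four-parameter fit of luciferase signal as % of untreated control, repeated across several determinations. The signal is from the HCV 1b_Huh-Luc/Neo-ET replicon line, dosed in triplicate one day post-plating and incubated 72 h before Bright-Glo readout.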

[1] = Huh-7, 72 h, read-out: Inhibition of HCV genotype 1b
[2] = Huh-7, read-out: Inhibition of HCV genotype 1b

SMILES	EC50 [1] [nM]	EC50 [2] [nM]
COC(=O)N[C@H](C(=O)N1CCC[C@H]1c1nc2ccc(C#Cc3ccc(-c4ccc5nc([C@@H]6CCCN6C(=O)[C@@H](NC(=O)OC)C(C)C)[nH]c5c4)nc3)cc2[nH]1)C(C)C [compound 1083]	< 1	
COC(=O)N[C@@H](C(=O)N1CCC[C@H]1c1ncc(C#Cc2ccc(-c3ccc(-c4cnc([C@@H]5CCCN5C(=O)[C@@H](c5ccccc5)N5CCCC5)[nH]4)cc3)cc2)[nH]1)c1ccccc1 [Compound 759]	< 1	
CC(C)(C)OC(=O)N[C@@H](C(=O)N1CCC[C@H]1C(=O)Nc1ccc(C#Cc2cnc([C@@H]3CCCN3C(=O)[C@H](NC(=O)OC(C)(C)C)c3ccccc3)[nH]2)cc1)c1ccccc1 [Compound 115]	< 1	
CC(C)[C@@H](C(=O)N1CCC[C@H]1c1ncc(-c2ccc(C#Cc3ccc4nc([C@@H]5CCCN5C(=O)[C@H](C(C)C)N5CCOC5=O)[nH]c4c3)cc2)[nH]1)N1CCOC1=O [Compound 1039]	1 to 9.9	
COC(=O)NC1(C(=O)N2CCC[C@H]2c2ncc(-c3ccc(C#Cc4ccc5nc([C@@H]6CCCN6C(=O)C6(NC(=O)OC)CCCC6)[nH]c5c4)cc3)[nH]2)CCCC1 [Compound 1044]	10 to 999	
CC(C)[C@@H](NC(=O)C1CC1)C(=O)N1CCC[C@H]1c1ncc(C#Cc2ccc(-c3cnc([C@@H]4CCCN4C(=O)[C@H](NC(=O)C4CC4)C(C)C)[nH]3)cc2)[nH]1 [Compound 107]	1 to 9.9	
COC(=O)N[C@@H](C(=O)N1CCC[C@H]1c1ncc(-c2ccc(C#Cc3ccc(C(=O)NC[C@@H]4CCCN4C(=O)[C@@H](c4ccccc4)N4CCCCC4)cc3)cc2)[nH]1)c1ccccc1 [Compound 233]	< 1	
COC(=O)N[C@H](C(=O)N1CCC[C@H]1c1ncc(-c2ccc(C#Cc3ccc(-c4cnc([C@@H]5CCCN5C(=O)[C@@H](c5ccccc5)N5CCOC5=O)[nH]4)cc3)cc2)[nH]1)C(C)C [Compound 1007]	< 1	
COC[C@H]1CCCN1C(=O)N[C@@H](C(=O)N1CCC[C@H]1c1ncc(-c2ccc(C#Cc3ccc(-c4cnc([C@@H]5CCCN5C(=O)[C@H](NC(=O)OC)c5ccccc5)[nH]4)cc3)cc2)[nH]1)c1ccccc1 [Compound 259]	< 1	
COC[C@H](NC(=O)OC)C(=O)N1CCC[C@H]1c1nc2ccc3cc(C#Cc4ccc5nc([C@@H]6CCCN6C(=O)[C@@H](NC(=O)OC)C(C)C)[nH]c5c4)ccc3c2[nH]1 [Compound 1288]		< 1
COC(=O)N[C@H](C(=O)N1CCC[C@H]1c1ncc(-c2ccc(C#Cc3ccc(-c4cnc([C@@H]5CCCN5C(=O)[C@H](NC(=O)N5CC[C@H](O)C5)c5ccccc5)[nH]4)cc3)cc2)[nH]1)C(C)C [Compound 974]	< 1	
COC(=O)N[C@@H](C(=O)N1CCC[C@H]1c1ncc(-c2ccc(C#Cc3ccc(-c4cnc([C@@H]5CCCN5C(=O)[C@H](NC(=O)OC)c5ccccc5)[nH]4)cc3C#N)cc2)[nH]1)c1ccccc1 [Compound 1203]		< 1
CC(C)[C@H](NC(=O)N1CCC(C)(O)CC1)C(=O)N1CCC[C@H]1c1ncc(-c2ccc(C#Cc3ccc(-c4cnc([C@@H]5CCCN5C(=O)[C@@H](NC(=O)N5CCC(C)(O)CC5)C(C)C)[nH]4)cc3)cc2)[nH]1 [Compound 966]	10 to 999	
C=CC[C@H](NC(=O)OC)C(=O)N1CCC[C@H]1c1nc2ccc(C#Cc3ccc4c(c3)CCCc3nc([C@@H]5CCCN5C(=O)[C@@H](NC(=O)OC)C(C)C)[nH]c3-4)cc2[nH]1 [Compound 1283]		< 1
COC(=O)N[C@H](C(=O)N1CCC[C@H]1c1ncc(-c2ccc(C#Cc3ccc(-c4cnc([C@@H]5CCCN5C(=O)[C@@H](NC(=O)OC)[C@@H](C)OC)[nH]4)cc3)cc2)[nH]1)[C@@H](C)OC [Compound 284]	< 1	
CC(C)(C)OC(=O)N[C@@H](C(=O)N1CCC[C@H]1C(=O)NCCc1ccc(C#Cc2cnc([C@@H]3CCCN3C(=O)[C@H](NC(=O)OC(C)(C)C)c3ccccc3)[nH]2)cc1)c1ccccc1 [Compound 124]	< 1	
COC(=O)N[C@@H](C(=O)N1CCC[C@H]1c1ncc(-c2ccc(C#Cc3ccc(-c4cnc([C@@H]5CCCN5C(=O)[C@H](NC(=O)[C@H]5CCCN5C)c5ccccc5)[nH]4)cc3)cc2)[nH]1)c1ccccc1 [Compound 204]	< 1	
C[C@@H]1OC(=O)N[C@H]1C(=O)N1CCC[C@H]1c1ncc(-c2ccc(C#Cc3ccc(-c4cnc([C@@H]5CCCN5C(=O)[C@@H]5NC(=O)O[C@H]5C)[nH]4)cc3)cc2)[nH]1 [Compound 1000]	10 to 999	
COC(=O)N[C@H](C(=O)N1CCC[C@H]1c1ncc(-c2ccc(C#Cc3ccc4nc([C@@H]5CCCN5C(=O)[C@@H](NC(=O)OC)[C@H](C)O)[nH]c4c3)cc2)[nH]1)[C@H](C)O [Compound 1031]	< 1	
COC(=O)N[C@H](C(=O)N1CCC[C@H]1c1nc(-c2ccc3cc(C#Cc4cnc([C@@H]5CCCN5C(=O)[C@@H](NC(=O)OC)C5CCOCC5)[nH]4)ccc3c2)c[nH]1)C(C)C [Compound 1079]	< 1	
CC(C)[C@@H](NC(=O)OC(C)(C)C)C(=O)N1CCC[C@H]1c1ncc(C#Cc2ccc(-c3cnc([C@@H]4CCCN4C(=O)[C@H](NC(=O)OC(C)(C)C)C(C)C)[nH]3)cc2)[nH]1 [Compound 105]	10 to 999	
O=C(N[C@@H](C(=O)N1CCC[C@H]1c1cc(-c2ccc(C#Cc3ccc(-c4cnc([C@@H]5CCCN5C(=O)[C@H](NC(=O)[C@@H]5CCCO5)c5ccccc5)[nH]4)cc3)cc2)n[nH]1)c1ccccc1)[C@@H]1CCCO1 [Compound 214]	< 1	
COC(=O)N[C@H](C(=O)N1CCC[C@H]1c1ncc(-c2ccc(C#Cc3ccc(-c4cnc([C@@H]5CCCN5C(=O)[C@@H](c5ccccc5)N5CCC(O)CC5)[nH]4)cc3)cc2)[nH]1)C(C)C [Compound 956]	< 1	
CC(C)(C)OC(=O)N[C@@H](C(=O)N1CCC[C@H]1c1ncc(-c2ccc(C#Cc3ccc(-c4cnc([C@@H]5CCCN5C(=O)[C@H](NC(=O)OC(C)(C)C)c5ccccc5)[nH]4)cc3)cc2)[nH]1)c1ccccc1 [Compound 246]	< 1	
COC(=O)N[C@H](C(=O)N1CCC[C@H]1c1ncc(-c2ccc3cc(C#Cc4ccc5nc([C@@H]6CCCN6C(=O)[C@@H](NC(=O)OC)C(C)C)[nH]c5c4)ccc3c2)[nH]1)C(C)C [Compound 1111]	< 1	
COC(=O)NC(C(=O)N[C@@H](C)c1ncc(-c2ccc(C#Cc3ccc(-c4cnc([C@@H]5CCCN5C(=O)[C@H](NC(=O)OC)c5ccccc5)[nH]4)cc3)cc2)[nH]1)c1ccccc1 (some centres unmarked) [Compound 279]	< 1	
COC(=O)N[C@@H](C(=O)N1CCC[C@H]1c1ncc(-c2ccc(C#Cc3ccc(-c4cnc([C@@H]5CCCN5C(=O)[C@@H](c5ccccc5)N5CCCC5)[nH]4)cc3)cc2)[nH]1)c1ccccc1 [Compound 178]	< 1	
CC[C@@H](C)[C@H](NC(=O)OC)C(=O)N1CCC[C@H]1c1ncc(-c2ccc(C#Cc3ccc(-c4cnc([C@@H]5CCCN5C(=O)[C@@H](NC(=O)OC)[C@H](C)CC)[nH]4)cc3)cc2)[nH]1 [Compound 1217]		< 1
C[C@@H](NC(=O)[C@@H]1CCCN1C(=O)[C@H](NC(=O)OC(C)(C)C)c1ccccc1)c1ccc(C#Cc2ccc(-c3cnc([C@@H]4CCCN4C(=O)[C@H](NC(=O)OC(C)(C)C)c4ccccc4)[nH]3)cc2)cc1 [Compound 167]	1 to 9.9	

— patent publication US20130296311A1, “INHIBITORS OF HCV NS5A” (PRESIDIO PHARMACEUTICALS, INC., priority 2010, published 2013)
